Columns and labels:
[1] = Inhibition of Endoplasmic reticulum alpha-glucosidase (unknown origin); parameters: species or system Homo sapiens
[2] = Inhibition of Glycosidase (unknown origin); parameters: species or system Homo sapiens
[3] = molecular target: T1, Lysosomal alpha-glucosidase (Homo sapiens, UniProt P10253); assay: Inhibition of human GAA using 4-methylumbelliferyl-alpha-D-glucopyranoside as substrate preincubated for 45 min followed by substrate addition and measured after 30 min by fluorescence spectrophotometer analysis
[4] = Inhibition of Lysosomal alpha-glucosidase in Aspergillus niger
[5] = molecular target: Sucrase-isomaltase, intestinal (Homo sapiens, UniProt P14410); assay: Inhibition of Sucrase (unknown origin)
[6] = molecular target: T1, Lysosomal alpha-glucosidase; conditions: dose 10.0 µM
Description: Stabilization of recombinant human GAA using 4-methylumbelliferyl-alpha-D-glucopyranoside as substrate assessed as relative fluorescence intensity by measuring midpoint temperature protein denaturation at 10 uM by thermal shift assay (Rvb = 58.6 degC)

[7] = Inhibition of rat intestinal maltase
[8] = Inhibition of Maltase (unknown origin); parameters: species or system Homo sapiens
[9] = Inhibition of Penicillium decumbens Alpha-L-rhamnosidase

Chain of Sucrase-isomaltase, intestinal (P14410 2-1007 limits assumed): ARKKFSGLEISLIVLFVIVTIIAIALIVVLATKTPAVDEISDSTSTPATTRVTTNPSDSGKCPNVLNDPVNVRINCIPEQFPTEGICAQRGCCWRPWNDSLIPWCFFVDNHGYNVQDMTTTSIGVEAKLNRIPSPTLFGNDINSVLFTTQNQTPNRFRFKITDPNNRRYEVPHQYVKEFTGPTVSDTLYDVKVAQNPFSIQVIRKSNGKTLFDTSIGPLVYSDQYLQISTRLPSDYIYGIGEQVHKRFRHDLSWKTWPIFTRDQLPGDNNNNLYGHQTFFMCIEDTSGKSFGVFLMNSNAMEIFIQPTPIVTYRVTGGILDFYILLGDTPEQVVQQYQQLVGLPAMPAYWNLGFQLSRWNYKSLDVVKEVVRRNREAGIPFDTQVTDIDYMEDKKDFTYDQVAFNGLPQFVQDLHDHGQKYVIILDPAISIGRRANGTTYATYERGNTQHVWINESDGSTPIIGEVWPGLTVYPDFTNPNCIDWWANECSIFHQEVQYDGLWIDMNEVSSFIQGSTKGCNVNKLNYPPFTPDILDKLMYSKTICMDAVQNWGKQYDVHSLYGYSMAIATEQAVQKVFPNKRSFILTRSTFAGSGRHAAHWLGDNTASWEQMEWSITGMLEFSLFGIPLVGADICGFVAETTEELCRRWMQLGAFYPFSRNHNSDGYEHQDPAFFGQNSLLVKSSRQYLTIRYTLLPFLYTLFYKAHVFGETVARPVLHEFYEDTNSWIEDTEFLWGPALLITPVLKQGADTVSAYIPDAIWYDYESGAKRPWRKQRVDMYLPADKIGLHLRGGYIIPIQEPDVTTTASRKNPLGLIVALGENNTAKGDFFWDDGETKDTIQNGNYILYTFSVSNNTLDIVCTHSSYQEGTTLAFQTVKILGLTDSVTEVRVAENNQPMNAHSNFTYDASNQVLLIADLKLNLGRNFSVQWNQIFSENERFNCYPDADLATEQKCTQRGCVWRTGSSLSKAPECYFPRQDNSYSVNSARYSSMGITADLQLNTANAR
Chain of Sucrase-isomaltase, intestinal (P14410 1008-1827 limits assumed): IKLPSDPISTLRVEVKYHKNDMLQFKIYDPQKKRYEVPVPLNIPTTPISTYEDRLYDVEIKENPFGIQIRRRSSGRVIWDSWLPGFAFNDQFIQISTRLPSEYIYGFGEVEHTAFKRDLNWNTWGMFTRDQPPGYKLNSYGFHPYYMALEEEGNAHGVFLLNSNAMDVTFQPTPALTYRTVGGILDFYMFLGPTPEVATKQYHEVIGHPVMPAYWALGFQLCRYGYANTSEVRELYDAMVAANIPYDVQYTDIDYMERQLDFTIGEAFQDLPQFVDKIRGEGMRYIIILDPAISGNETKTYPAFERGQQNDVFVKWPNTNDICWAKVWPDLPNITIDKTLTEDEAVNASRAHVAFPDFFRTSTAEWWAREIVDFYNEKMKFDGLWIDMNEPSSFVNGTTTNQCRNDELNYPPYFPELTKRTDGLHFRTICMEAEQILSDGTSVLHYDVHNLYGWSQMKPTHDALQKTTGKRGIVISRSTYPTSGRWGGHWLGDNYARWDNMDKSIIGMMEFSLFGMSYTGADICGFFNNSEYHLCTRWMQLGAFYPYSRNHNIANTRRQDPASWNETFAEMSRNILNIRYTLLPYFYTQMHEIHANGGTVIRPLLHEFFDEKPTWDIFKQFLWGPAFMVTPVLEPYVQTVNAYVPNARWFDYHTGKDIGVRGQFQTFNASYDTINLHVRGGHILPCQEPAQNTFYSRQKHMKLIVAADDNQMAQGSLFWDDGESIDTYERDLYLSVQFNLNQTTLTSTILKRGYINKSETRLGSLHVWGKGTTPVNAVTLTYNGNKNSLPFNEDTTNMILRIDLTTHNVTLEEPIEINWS

Row | SMILES | Ki [3] | also measured
1 | OC[C@H]1NC[C@H](O)[C@@H](O)[C@@H]1O [DUVOGLUSTAT] | – | IC50 [1]: 1400 nM
2 | C[C@]1(O)CN2C[C@H](O)[C@H](O)[C@@H]2[C@@H](O)[C@@H]1O | – | IC50 [2]: 200 nM
3 | CCCCN1C[C@H](O)[C@@H](O)[C@H](O)[C@H]1CO | 200 nM | –
4 | CCCN1C[C@H](O)[C@@H](O)[C@H](O)[C@H]1CO | 360 nM | –
5 | C[C@@H]1NC[C@@H](O)[C@H](O)[C@]1(C)O | – | IC50 [2]: 50000 nM
6 | OC[C@H]1NC[C@@H](O)[C@H]1O | – | IC50 [4]: 190 nM
7 | C[C@@]1(O)CN[C@H](CO)[C@@H]1O | – | IC50 [2]: 12000 nM
8 | OC[C@@H]1NC[C@H](O)[C@H]1O | – | IC50 [5]: 1000 nM
9 | CCCCCN1C[C@H](O)[C@@H](O)[C@H](O)[C@H]1CO | 210 nM | –
10 | CCCCCCCN1C[C@H](O)[C@@H](O)[C@H](O)[C@H]1CO | 95 nM | –
11 | C[C@@]1(O)[C@H](O)CN[C@@H]1CO | – | IC50 [2]: 800 nM
12 | C[C@]1(CO)NC[C@@H](O)[C@@H]1O | – | IC50 [7]: 740 nM
13 | CCCCCCN1C[C@H](O)[C@@H](O)[C@H](O)[C@H]1CO | 130 nM | –
14 | OC[C@H]1NC[C@@H](O)[C@@H]1O | – | IC50 [8]: 55 µM
15 | O[C@@H]1[C@@H]2[C@@H](O)[C@H](O)[C@@H](O)CN2C[C@@H]1O | – | IC50 [9]: 530 µM

Second part, led by results:

Row | Ki [3] | SMILES | also measured
16 | 6000 nM | CC[C@]1(CO)NC[C@H](O)[C@@H](O)[C@@H]1O | –
17 | 19 nM | CCCCC[C@]1(CO)NC[C@H](O)[C@@H](O)[C@@H]1O | –
18 | 210 nM | CCN1C[C@H](O)[C@@H](O)[C@H](O)[C@H]1CO | –
19 | 2500 nM | CCCCCCC[C@@]1(CO)NC[C@H](O)[C@@H](O)[C@@H]1O | –
20 | 37000 nM | C[C@]1(CO)NC[C@H](O)[C@@H](O)[C@@H]1O | Tm [6]: 69.5 °C; IC50 [2]: 1000 nM
21 | 37 nM | CCCC[C@]1(CO)NC[C@H](O)[C@@H](O)[C@@H]1O | Tm [6]: 70.2 °C
22 | 4.7 nM | CCCCCCC[C@]1(CO)NC[C@H](O)[C@@H](O)[C@@H]1O | –
23 | 59 nM | CCC[C@]1(CO)NC[C@H](O)[C@@H](O)[C@@H]1O | –
24 | 6.1 nM | CCCCCC[C@]1(CO)NC[C@H](O)[C@@H](O)[C@@H]1O | –
